Two compounds from paper PMC8143356, “Mechanism of Resistance Development in E. coli against TCAT, a Trimethoprim-Based Photoswitchable Antibiotic” (Pharmaceuticals, 2021) can be followed below.

The assay addresses T1, dihydrofolate reductase (DHFR) (Escherichia coli, UniProt P0ABQ4, C152S/C85A).
T1 construct: gene folA
T1 sequence (P0ABQ4 1-159 C85A/C152S): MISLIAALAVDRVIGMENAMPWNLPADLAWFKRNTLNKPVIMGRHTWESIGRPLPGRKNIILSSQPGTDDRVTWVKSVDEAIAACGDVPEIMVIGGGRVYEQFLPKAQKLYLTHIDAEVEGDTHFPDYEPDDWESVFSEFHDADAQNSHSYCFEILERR
As to the kind of experiment: spectrophotometric DHFR activity assay ([…] nm) with in-house purified E. coli DHFR, triplicates. The class given is biochemical.

A word on the IC50: it is the point on the concentration scale where inhibition reaches its midpoint. Low readings indicate greater potency, high ones weaker potency. In turn, `COc1cc(Cc2cnc(N)nc2N)cc(OC)c1OCc1cc(Cl)c(/N=N\c2c(Cl)cccc2Cl)c(Cl)c1` [TCATa] yielded an IC50 of 3.3 ± 2.1 nM.
As for `COc1cc(Cc2cnc(N)nc2N)cc(OC)c1OCc1cc(Cl)c(/N=N/c2c(Cl)cccc2Cl)c(Cl)c1` [TCATd], the figure is 3.8 ± 1.4 nM.
